The values below come from US7709471B2, “Compounds” (AstraZeneca AB, priority 2006, dated 2010).

SMILES strings stand for the structures. A value given as a limit tells only on which side of the number the result lay.

In assay [1] the target is recombinant Plk1 (Homo sapiens, UniProt P53350). The experiment in a line: In Vitro Plk1 Enzyme Assay (SPA, GST-Cdc25C phosphorylation). In kind it is biochemical. The following applies: ATP 64 nM, 90 minutes, read-out: IC50 (Plk1 enzyme inhibition).
In assay [2] the test system is human colon tumour cell line HT29. Description: Cellular Assay (phosphohistone H3 Ser10 mitotic marker, HT29). The format is cell-based. The following applies: HT-29, 24 h, HT29 cells, read-out: IC50 (cellular assay, phosphohistone H3).
Protocol: Chromosome condensation in mitosis is accompanied by phosphorylation of histone H3 on serine 10.
After 24 hours, cells were fixed in 3.7% (v/v) formaldehyde then permeabilised and blocked for 10 minutes in 100 μl 0.5% (v/v) Triton X-100, 1% (w/v) bovine serum albumin (BSA) in phosphate buffered saline (PBS). […] The raw assay data were analysed by non-linear regression analysis and used to determine an IC50 value for each compound.

recombinant Plk1, sequence (P53350 whole entry): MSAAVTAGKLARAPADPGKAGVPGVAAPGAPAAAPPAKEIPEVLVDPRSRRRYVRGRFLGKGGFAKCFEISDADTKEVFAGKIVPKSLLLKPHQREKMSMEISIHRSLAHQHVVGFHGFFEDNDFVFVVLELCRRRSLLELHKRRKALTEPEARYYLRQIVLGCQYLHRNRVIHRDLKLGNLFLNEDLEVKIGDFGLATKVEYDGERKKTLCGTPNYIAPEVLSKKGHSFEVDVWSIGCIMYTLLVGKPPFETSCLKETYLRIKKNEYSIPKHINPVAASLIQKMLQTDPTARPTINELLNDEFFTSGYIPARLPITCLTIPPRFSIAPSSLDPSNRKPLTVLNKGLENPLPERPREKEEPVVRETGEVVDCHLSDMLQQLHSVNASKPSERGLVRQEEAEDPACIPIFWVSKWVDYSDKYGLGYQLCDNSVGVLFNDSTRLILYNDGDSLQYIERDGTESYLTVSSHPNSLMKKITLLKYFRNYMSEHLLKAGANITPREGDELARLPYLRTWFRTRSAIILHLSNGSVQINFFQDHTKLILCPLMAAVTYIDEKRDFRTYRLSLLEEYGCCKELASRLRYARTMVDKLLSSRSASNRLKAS

As for `COc1cc(C(=O)NC(C)(C)CN2CCCC2)ccc1Nc1ncc2c(n1)N(C1CCCC1)CCC(=O)N2C` [Example 81, 4-[(6-cyclopentyl-2-methyl-3-oxo-2,6,8,10-tetrazabicyclo[5.4.0]undeca-8,10,12-trien-9-yl)amino]-3-methoxy-N-(2-methyl-1-pyrrolidin-1-yl-propan-2-yl)benzamide], the figures for the IC50 in assay [1] and in assay [2] were below 1000 nM and below 300 nM, respectively.
Take `CN1C(=O)CCN(C2CCCC2)c2nc(Nc3ccc(CNC(=O)c4ccccn4)cc3)ncc21` [Example 133, N-[[4-[(6-cyclopentyl-2-methyl-3-oxo-2,6,8,10-tetrazabicyclo[5.4.0]undeca-8,10,12-trien-9-yl)amino]phenyl]methyl]pyridine-2-carboxamide]: the 50% inhibitory concentration (IC50) was below 100000 nM in assay [1] and below 30000 nM in assay [2].
Taken in the same sequence, the figures for `COc1cc(C(=O)NC2CCN(C)CC2)c(F)cc1Nc1ncc2c(n1)N(C1CCCC1)CCC(=O)N2C` [Example 48, 4-[(6-cyclopentyl-2-methyl-3-oxo-2,6,8,10-tetrazabicyclo[5.4.0]undeca-8,10,12-trien-9-yl)amino]-2-fluoro-5-methoxy-N-(1-methyl-4-piperidyl)benzamide] were below 300 nM and below 300 nM.
Taken in the same sequence, the figures for `CC(=O)Nc1cccc(Nc2ncc3c(n2)N(C2CCCC2)CCC(=O)N3C)c1` [Example 177, N-[3-[(6-cyclopentyl-2-methyl-3-oxo-2,6,8,10-tetrazabicyclo[5.4.0]undeca-8,10,12-trien-9-yl)amino]phenyl]acetamide] were below 100000 nM and below 30000 nM.
The like results for `COc1cc(C(=O)NC2CCN(C(=O)OC(C)(C)C)CC2)ccc1Nc1ncc2c(n1)N(C1CCCC1)CCC(=O)N2C` [Example 50, tert-butyl 4-[[4-[(6-cyclopentyl-2-methyl-3-oxo-2,6,8,10-tetrazabicyclo[5.4.0]undeca-8,10,12-trien-9-yl)amino]-3-methoxy-benzoyl]amino]piperidine-1-carboxylate] were, in that order, below 100000 nM and below 300 nM.
As for `COc1cc(C(=O)N[C@@H]2CCN(C(=O)OC(C)(C)C)C2)ccc1Nc1ncc2c(n1)N(C1CCCC1)CCC(=O)N2C` [Example 52, tert-butyl (3R)-3-[[4-[(6-cyclopentyl-2-methyl-3-oxo-2,6,8,10-tetrazabicyclo[5.4.0]undeca-8,10,12-trien-9-yl)amino]-3-methoxy-benzoyl]amino]pyrrolidine-1-carboxylate], the IC50 is below 1000 nM in assay [1] and below 300 nM in assay [2].
The like results for `CNCCCNC(=O)c1ccc(Nc2ncc3c(n2)N(C2CCCC2)CCC(=O)N3C)c(OC)c1` [Example 44, 4-[(6-cyclopentyl-2-methyl-3-oxo-2,6,8,10-tetrazabicyclo[5.4.0]undeca-8,10,12-trien-9-yl)amino]-3-methoxy-N-(3-methylaminopropyl)benzamide] were, in that order, below 300 nM and below 300 nM.
The like results for `COc1cc(C(=O)NC2CCC(N(C)C)CC2)ccc1Nc1ncc2c(n1)N(C1CCCC1)CCC(=O)N2C` (stereo not drawn) [Example 60, 4-[(6-cyclopentyl-2-methyl-3-oxo-2,6,8,10-tetrazabicyclo[5.4.0]undeca-8,10,12-trien-9-yl)amino]-N-(4-dimethylaminocyclohexyl)-3-methoxy-benzamide] were, in that order, below 300 nM and below 300 nM.
For the compound `COc1cc(C(=O)NCC(C)(C)CN(C)C)ccc1Nc1ncc2c(n1)N(C1CCCC1)CC1(CC1)C(=O)N2C` [Example 386, 4-(9′-cyclopentyl-5′-methyl-6′-oxo-5′,6′,8′,9′-tetrahydrospiro[cyclopropane-1,7′-pyrimido[5,4-b][1,4]diazepine]-2′-ylamino)-N-(3-dimethylamino-2,2-dimethyl-propyl)-3-methoxy-benzamide], the IC50 in assay [1] and in assay [2] was below 300 nM each time.

A word on the IC50: it is the midpoint of a concentration-inhibition curve.
